Patent EP0558245A1, “Heterobicyclic compounds as antagogists of alpha-1 adrenergic and SHT1A receptors” (priority 1992, dated 1993)
Like-named read-outs stand apart in the source and are kept apart here.

Tests used:
α₁ receptors = assay: [3H]prazosin binding (α1 receptors), rat cerebral cortex membranes; conditions: rat cerebral cortex crude membranes, [3H]prazosin 0.35 nM, 25°C 30 min; read-out: Receptor Binding IC50 (nM) α1
Protocol: Rat cerebral cortices were homogenized in 50 volumes of original wet weight of ice-cold 50 mM Tris-HCl buffer pH 7.4. The homogenates were centrifuged at 48,000 x g for 10 minutes, and the pellets were resuspended in the same volume of ice-cold buffer, centrifuged and resuspended two more times. The final pellets obtained were resuspended in the same volume of buffer and incubated according to the conditions reported in the table below.
(§1) The incubations were terminated after the appropriate time (see table) by rapid filtration through Whatman GF/B filters using a Brandel cell harvester. The filters were washed twice with 15 ml of ice-cold buffer (see table). The radioactivity retained on the filters was determined by liquid scintillation counting. Nonspecific binding (which amounted generally to 10-30%) was evaluated by adding high concentrations of the specific displacers (see table). All the compounds were initially tested at 1x10⁻⁶ M concentration, and in the presence of significant displacing activity, a complete competition curve was generated (down to a concentration of 10⁻¹¹ M). All the samples were run in triplicate.

5HT1A receptors = biological target: T1, 5HT1A receptors (Rattus norvegicus, UniProt P19327); assay: [3H]8-OH-DPAT binding (5HT1A receptors), rat hippocampus membranes; conditions: rat hippocampus crude membranes, [3H]8-OH-DPAT 1.0 nM, 25°C 30 min; read-out: Receptor Binding IC50 (nM) 5-HT1a
T1 construct: Rat hippocampi were homogenized; from tissue; host or cells: rat hippocampus membranes
T1 sequence (P19327 1-422): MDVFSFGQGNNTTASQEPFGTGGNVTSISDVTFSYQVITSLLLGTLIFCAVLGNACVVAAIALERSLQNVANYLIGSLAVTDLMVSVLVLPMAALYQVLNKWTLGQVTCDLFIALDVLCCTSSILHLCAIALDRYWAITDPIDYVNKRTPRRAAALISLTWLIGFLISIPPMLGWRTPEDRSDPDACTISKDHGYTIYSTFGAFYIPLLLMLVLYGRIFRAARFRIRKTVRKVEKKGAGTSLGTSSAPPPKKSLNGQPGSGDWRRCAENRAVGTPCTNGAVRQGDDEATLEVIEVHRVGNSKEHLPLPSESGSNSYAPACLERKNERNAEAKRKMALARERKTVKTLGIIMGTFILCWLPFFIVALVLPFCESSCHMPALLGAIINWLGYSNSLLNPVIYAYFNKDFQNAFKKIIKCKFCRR
Protocol: Rat hippocampi were homogenized in 50 volumes of original wet weight of ice-cold 50 mM Tris-HCl buffer pH 7.4. The homogenates were centrifuged at 48,000 x g for 10 minutes, and the pellets were resuspended in the same volume of ice-cold buffer, incubated for 10 minutes at 37°C, centrifuged and resuspended two more times. The final pellets obtained were resuspended in the same volume of buffer and incubated according to the conditions reported in the table below.
as §1
The competition curves were always analyzed (to evaluate the IC₅₀ values) by non linear curve fitting of the logistic equation according to the method reported by De Lean et al. (Am. J. Physiol., 235, E97, 1978), utilizing the ALLFIT program [publically available from the National Institutes of Health (N.I.H.) Bethesda, Maryland, USA] written for the IBM PC.

[1] = Acute toxicity in mice after intraperitoneal and oral administration; conditions: mouse, in vivo, female albino Swiss mice, mortality recorded 7 days after administration
Protocol: Male Sprague Dawley rats [Crl: CD' BR] of 200-300 g b.w., female Albino Swiss mice [Crl: CD-1 (ICR) BR] 20-30 g b.w., and male Beagle dogs (10-12 kg b.w.) were obtained from Charles River, Italy and Nossan (Correzzana, Milan, Italy), respectively. Animals were housed with free access to food and water and maintained on forced light-dark cycle at 22-24°C until the day of experiments.
The acute toxicity of synthesized compounds was evaluated in female albino Swiss mice after intraperitoneal and oral administration. Four logarithmic scaled doses of the compounds were dissolved or suspended in 0.5% Methocel and administered in a volume of 10 ml/kg to groups of 4 mice/dose. Mortality was recorded 7 days after the administration. Data analysis: the LD₅₀ values and their fiducial limits were calculated according to the method of Weil (Biometrics, 8, 249, 1952).

| IC50 (α₁ receptors) | IC50 (5HT1A receptors) | SMILES | LD50 at 168 h ([1]; ip, intraperitoneal, read-out: Acute Toxicity in Mice LD50 (mg/kg) i.p.) | LD50 at 168 h ([1]; oral, read-out: Acute Toxicity in Mice LD50 (mg/kg) p.o.) |
| --- | --- | --- | --- | --- |
| 5 nM | 2 nM | COc1ccccc1N1CCN(CCCCS(=O)(=O)c2cccc3c(=O)c(C)c(-c4ccccc4)oc23)CC1 [Example 84, 8-{4-[4-(2-methoxyphenyl)-1-piperazinyl]-butylsulphonyl}-3-methyl-4-oxo-2-phenyl-4H-1-benzopyran methanesulphonate . ¼ H₂O] | – | – |
| 28 nM | 162 nM | COc1ccccc1N1CCN(CCNC(=O)Cc2cccc3c(=O)cc(-c4ccccc4)oc23)CC1 [Example 80, 8-{2-[4-(2-methoxyphenyl)-1-piperazinyl]-ethylcarbamoylmethyl}-4-oxo-2-phenyl-4H-1-benzopyran methanesulphonate hydrate] | – | – |
| 18 nM | 116 nM | COc1ccccc1N1CCN(CC/C=C/c2cccc3c(=O)c(C)c(-c4ccccc4)oc23)CC1 [Example 78, (E)-8-{4-[4-(2-methoxyphenyl)-1-piperazinyl]-1-butenyl}-3-methyl-4-oxo-2-phenyl-4H-1-benzopyran] | – | – |
| 48 nM | 20 nM | COc1ccccc1N1CCN(CCCNC(=O)c2cccc3c(=O)cc(-c4ccccc4)oc23)CC1 [Example 86, 8-{3-[4-(2-methoxyphenyl)-1-piperazinyl]-propylcarbamoyl}-4-oxo-2-phenyl-4H-1-benzopyran methanesulphonate . ¼ H₂O] | – | – |
| 47 nM | 38 nM | COc1ccccc1N1CCN(CCCNC(=O)c2cc([N+](=O)[O-])cc3c(=O)c(C)c(-c4ccccc4)oc23)CC1 [Example 93, 8-{3-[4-(2-methoxyphenyl)-1-piperazinyl]-propylcarbamoyl}-3-methyl-6-nitro-4-oxo-2-phenyl-4H-1-benzopyran] | – | – |
| 30 nM | 5 nM | COc1ccccc1N1CCN(CCCNC(=S)c2cccc3c(=O)c(C)c(-c4ccccc4)oc23)CC1 [Example 83, 8-{3-[4-(2-methoxyphenyl)-1-piperazinyl]-propylthiocarbamoyl}-3-methyl-4-oxo-2-phenyl-4H-1-benzopyran methanesulphonate] | – | – |
| 56 nM | 18 nM | COc1ccccc1N1CCN(CCCNC(=O)c2cccc3c(=O)c(C)c(C)oc23)CC1 [Example 102, 8-{3-[4-(2-methoxyphenyl)-1-piperazinyl]-propylcarbamoyl}-2,3-dimethyl-4-oxo-4H-1-benzopyran] | – | – |
| 9 nM | 15 nM | COc1ccccc1N1CCN(CCCNC(=O)c2cccc3c(=O)c(C)c(C4CCCCC4)oc23)CC1 [Example 104, 8-{3-[4-(2-methoxyphenyl)-1-piperazinyl]-propylcarbamoyl}-2-cyclohexyl-3-methyl-4-oxo-4H-1-benzopyran] | – | – |
| 216 nM | 11 nM | COc1ccccc1N1CCN(CCCNC(=O)c2cccc3c(=O)ccoc23)CC1 [Example 88, 8-{3-[4-(2-methoxyphenyl)-1-piperazinyl]-propylcarbamoyl}-4-oxo-4H-1-benzopyran methanesulphonate . 1.25 H₂O] | – | – |
| 103 nM | 12 nM | COc1ccccc1N1CCN(CCCNC(=O)c2c(OC)ccc3c(=O)c(C)c(-c4ccccc4)oc23)CC1 [Example 98, 8-{3-[4-(2-methoxyphenyl)-1-piperazinyl]-propylcarbamoyl}-7-methoxy-3-methyl-4-oxo-2-phenyl-4H-1-benzopyran] | – | – |
| 13 nM | 81 nM | COc1ccccc1N1CCN(CCCN(C(C)=O)C(=O)c2cccc3c(=O)c(C)c(-c4ccccc4)oc23)CC1 [Example 81, 8-{N-acetyl-3-[4-(2-methoxyphenyl)-1-piperazinyl]-propylcarbamoyl}-3-methyl-4-oxo-2-phenyl-4H-1-benzopyran] | – | – |
| 26 nM | 15 nM | COc1ccc(-c2oc3c(C(=O)NCCCN4CCN(c5ccccc5OC)CC4)cccc3c(=O)c2C)cc1 [Example 110, 8-{3-[4-(2-methoxyphenyl)-1-piperazinyl]-propylcarbamoyl}-2-(4-methoxyphenyl)-3-methyl-4-oxo-4H-1-benzopyran] | – | – |
| 16 nM | 14 nM | COc1ccccc1N1CCN(CCCNC(=O)c2cccc3c(=O)c(CO)c(-c4ccccc4)oc23)CC1 [Example 85, 8-{3-[4-(2-methoxyphenyl)-1-piperazinyl]-propylcarbamoyl}-3-hydroxymethyl-4-oxo-2-phenyl-4H-1-benzopyran. 0.4 ethanol] | – | – |
| 44 nM | 5 nM | COc1ccccc1N1CCN(CCCNC(=O)c2cccc3c(=O)c(C)c(-c4ccc(C(F)(F)F)cc4)oc23)CC1 [Example 99, 8-{3-[4-(2-methoxyphenyl)-1-piperazinyl]-propylcarbamoyl}-3-methyl-4-oxo-2-(4-trifluoromethylphenyl)-4H-1-benzopyran methanesulphonate sesquihydrate] | – | – |
| 39 nM | 66 nM | COc1ccccc1N1CCN(CCCNC(=O)c2cc(N)cc3c(=O)c(C)c(-c4ccccc4)oc23)CC1 [Example 94, 8-{3-[4-(2-methoxyphenyl)-1-piperazinyl]-propylcarbamoyl}-6-amino-3-methyl-4-oxo-2-phenyl-4H-1-benzopyran] | – | – |
| 37 nM | 16 nM | COc1ccccc1N1CCN(CCCNC(=O)c2cccc3c(=O)cc(-c4ccccc4)sc23)CC1 [Example 107, 8-{3-[4-(2-methoxyphenyl)-1-piperazinyl]-propylcarbamoyl}-4-oxo-2-phenyl-4H-1-benzothiopyran] | – | – |

Continued, compound first:

| SMILES | IC50 (α₁ receptors) | IC50 (5HT1A receptors) | LD50 at 168 h ([1]; ip, intraperitoneal, read-out: Acute Toxicity in Mice LD50 (mg/kg) i.p.) | LD50 at 168 h ([1]; oral, read-out: Acute Toxicity in Mice LD50 (mg/kg) p.o.) |
| --- | --- | --- | --- | --- |
| COc1ccccc1N1CCN(CCCN(OC2CCCCO2)C(=O)c2cccc3c(=O)c(C)c(-c4ccccc4)oc23)CC1 (stereo not drawn) [Example 68, 8-{N-(2-tetrahydropyranyloxy)-3-[4-(2-methoxyphenyl)-1-piperazinyl]-propylcarbamoyl}-3-methyl-4-oxo-2-phenyl-4H-1-benzopyran methanesulphonate hemihydrate] | 29 nM | 13 nM | – | – |
| Cc1c(-c2ccccc2)oc2c(C(=O)NCCCNCC3CCc4ccccc4C3=O)cccc2c1=O (stereo not drawn) [Example 65, 8-{3-[(3,4-dihydro-1-oxo-2H-naphthyl)-methylamino]-propylcarbamoyl}-3-methyl-4-oxo-2-phenyl-4H-1-benzopyran methanesulphonate] | – | 26 nM | – | – |
| CSc1ccccc1OCCNCCCNC(=O)c1cccc2c(=O)c(C)c(-c3ccccc3)oc12 [Example 75, 8-{3-[2-(2-methylthiophenoxy)-ethylamino]-propylcarbamoyl}-3-methyl-4-oxo-2-phenyl-4H-1-benzopyran methanesulphonate] | 147 nM | 15 nM | – | – |
| COc1ccccc1N1CCN(CCCC(=O)c2cccc3c(=O)c(C)c(-c4ccccc4)oc23)CC1.CS(=O)(=O)O | – | – | > 500 mg/kg | > 2000 mg/kg |
| COc1ccccc1N1CCN(CCCC(=O)c2cccc3c(=O)c(C)c(-c4ccccc4)oc23)CC1.CS(=O)(=O)O [methanesulphonate] | 22 nM | 84 nM | – | – |
| COc1ccccc1N1CCN(CCCSc2cccc3c(=O)c(C)c(-c4ccccc4)oc23)CC1 [Example 46, 8-{3-[4-(2-methoxyphenyl)-1-piperazinyl]-propylthio}-3-methyl-4-oxo-2-phenyl-4H-1-benzopyran] | 86 nM | 23 nM | – | – |
| COc1ccccc1N1CCN(CCCN(O)C(=O)c2cccc3c(=O)c(C)c(-c4ccccc4)oc23)CC1 [Example 71, 8-{N-hydroxy-3-[4-(2-methoxyphenyl)-1-piperazinyl]-propylcarbamoyl}-3-methyl-4-oxo-2-phenyl-4H-1-benzopyran methanesulphonate 0.25 H20] | 108 nM | 69 nM | – | – |
| COc1ccccc1N1CCN(CCCNC(=O)c2cccc3c(=O)c(-c4ccccc4)coc23)CC1 [Example 64, 8-{3-[4-(2-methoxyphenyl)-1-piperazinyl]-propylcarbamoyl}-3-phenyl-4-oxo-4H-1-benzopyran dimethanesulphonate] | 40 nM | 11 nM | – | – |
| COc1ccccc1N1CC[N+]([O-])(CCCOc2cccc3c(=O)c(C)c(-c4ccccc4)oc23)CC1 [Example 43, 8-{3-[4-(2-methoxyphenyl)-1-oxo-1-piperazinyl]-propoxy}-3-methyl-4-oxo-2-phenyl-4H-1-benzopyran 1.75-hydrate] | 166 nM | > 1000 nM | – | – |
| COc1ccccc1OCCCNCCCNC(=O)c1cccc2c(=O)c(C)c(-c3ccccc3)oc12 [Example 74, 8-{3-[3-(2-methoxyphenoxy)-propylamino]-propylcarbamoyl}-3-methyl-4-oxo-2-phenyl-4H-1-benzopyran methanesulphonate hemihydrate] | 178 nM | 482 nM | – | – |
